# Test results taken from patent publication US20220168293A1, “TIME TO RESOLUTION OF AXITINIB-RELATED ADVERSE EVENTS” (PFIZER INC., priority 2020, published 2022).
# Read-outs that look alike come from different tables or passages of the source.
# How the values were obtained:
# [1] = cited from earlier work
# [2] = Action taken for each occurrence of each AE by pooled treatment cohort; conditions: occurrences of the AE
# Procedure: To determine the TTR for each of the AEs, data were pooled for different treatment cohorts as follows: patients who received axitinib monotherapy (axitinib monotherapy cohort); patients who received axitinib in combination with IO therapy (axitinib+10 cohort); and patients in comparator treatment arms who received another TKI as monotherapy, i.e., sorafenib or sunitinib (other TKI cohort). TTR was calculated for all causality, treatment-emergent AEs. For each AE reported for patients in each pooled cohort, the action taken on presentation of the AE was documented. […] TTR was determined for AEs of any grade and for grade Data were descriptive only; no statistical comparisons were made.
# Action taken was determined as ‘not applicable’ when the associated drug was already permanently discontinued when the AE occurred.
# [3] = Time to resolution (TTR) of AEs after treatment interruption or discontinuation, pooled cohorts; assay type: in vivo, human
# Procedure: Five of the most common AEs associated with axitinib treatment were assessed: diarrhea; fatigue; hypertension; nausea; and palmar-plantar erythrodysesthesia syndrome (PPE). Incidences of treatment-emergent AEs were taken from the full published articles for each study. AEs were classified and graded per the Common Terminology Criteria for Adverse Events version 3.0 or the National Cancer Institute Common Terminology Criteria for Adverse Events version 4.03, as used in each individual study. Incidences of AEs were reported for any grade and for grade ≥3.
# [4] = drug already permanently discontinued
# [5] = AEs of any grade, after treatment interruption or discontinuation
# [6] = AEs of grade 3 or higher (FIG. 2)
smiles,measurement,setting,value
"CNC(=O)c1cc(Oc2ccc(NC(=O)Nc3ccc(Cl)c(C(F)(F)F)c3)cc2)ccn1 [Sorafenib, sorafenib]",half-life,[1]; in vivo,25 to 48 h
"CCN(CC)CCNC(=O)c1c(C)[nH]c(/C=C2\C(=O)Nc3ccc(F)cc32)c1C [Sunitinib, sunitinib]",half-life,[1]; in vivo,40 to 60 h
COc1cc2nccc(Oc3ccc(NC(=O)C4(C(=O)Nc5ccc(F)cc5)CC4)cc3)c2cc1OC [cabozantinib],half-life,[1]; in vivo,~99 h
COc1cc2nccc(Oc3ccc(NC(=O)NC4CC4)c(Cl)c3)c2cc1C(N)=O [lenvatinib],half-life,[1]; in vivo,~28 h
"CNC(=O)c1ccccc1Sc1ccc2c(/C=C/c3ccccn3)n[nH]c2c1 [Axitinib, axitinib]","Diarrhea, action taken: Stopped temporarily and reduced",[2],0 n
same,"Diarrhea, action taken: Unknown",[2],0 n
same,"Fatigue, action taken: Stopped temporarily and reduced",[2],0 n
same,"Fatigue, action taken: Unknown",[2],0 n
same,"Hypertension, action taken: Stopped temporarily and reduced",[2],0 n
same,"Hypertension, action taken: Unknown",[2],0 n
same,"Nausea, action taken: Permanently discontinued",[2],0 n
same,"Nausea, action taken: Stopped temporarily and reduced",[2],0 n
same,"Nausea, action taken: Unknown",[2],0 n
same,"PPE, action taken: Stopped temporarily and reduced",[2],0 n
same,"PPE, action taken: Unknown",[2],0 n
same,"Diarrhea, action taken: Not applicable",[2]; [4],0 n
same,"Fatigue, action taken: Not applicable",[2]; [4],0 n
same,"Hypertension, action taken: Not applicable",[2]; [4],0 n
same,"Nausea, action taken: Not applicable",[2]; [4],0 n
same,"PPE, action taken: Not applicable",[2]; [4],0 n
same,half-life,[1]; after a single 5 mg dose,2.5 to 6.1 h
same,"median (IQR) TTR, PPE",[3]; [5],3 (3-5) days
same,"median (IQR) TTR, diarrhea",[3]; [5],3 (1-6) days
same,"median (IQR) TTR, hypertension",[3]; [5],1 (1-3) days
same,"median (IQR) TTR, nausea",[3]; [5],3 (1-7) days
same,"median (IQR) TTR, fatigue","[3]; AEs of any grade, after treatment interruption or discontinuation, listed as INLYTA monotherapy",8 days
same,"median (IQR) TTR, fatigue","[3]; AEs of any grade, after treatment interruption or discontinuation, listed as axitinib monotherapy",8 (4-16) days
same,"median (IQR) TTR, PPE",[3]; [6],3 (1-6) days
same,"median (IQR) TTR, diarrhea",[3]; [6],3 (2-6) days
same,"median (IQR) TTR, hypertension",[3]; [6],2 (1-8) days
same,"median (IQR) TTR, nausea",[3]; [6],4 (2-15) days
same,"median (IQR) TTR, fatigue","[3]; AEs of grade 3 or higher (FIG. 2), listed as INLYTA monotherapy",8 days
same,"median (IQR) TTR, fatigue","[3]; AEs of grade 3 or higher (FIG. 2), listed as axitinib monotherapy",8 (5-16) days
same,"Median TTR for adverse reactions, except for fatigue (range of medians)",[3]; all grade,1 to 3 days
same,"Median TTR for adverse reactions, except for fatigue (range of medians)",[3]; grade 3 or higher,2 to 4 days
